Experimental data as given in article PMC9030254, “Target Hopping from Protein Kinases to PXR: Identification of Small-Molecule Protein Kinase Inhibitors as Selective Modulators of Pregnane X Receptor from TüKIC Library” (Cells, 2022).

What was measured:
Assay in all cases: Kinase profiling
Type in all cases: biochemical
CDK1/CycA2 = molecular target: T1, CDK1/CycA2 (Homo sapiens, UniProt P06493)
T1 construct: purchased ProQinase (Freiburg, Germany)
Protocol: (§1) The analysis was performed by ProQinase (Freiburg, Germany).

EEF2K = molecular target: T2, EEF2K (Homo sapiens, UniProt O00418)
T2 construct: purchased ProQinase (Freiburg, Germany)
T2 sequence (O00418 1-725): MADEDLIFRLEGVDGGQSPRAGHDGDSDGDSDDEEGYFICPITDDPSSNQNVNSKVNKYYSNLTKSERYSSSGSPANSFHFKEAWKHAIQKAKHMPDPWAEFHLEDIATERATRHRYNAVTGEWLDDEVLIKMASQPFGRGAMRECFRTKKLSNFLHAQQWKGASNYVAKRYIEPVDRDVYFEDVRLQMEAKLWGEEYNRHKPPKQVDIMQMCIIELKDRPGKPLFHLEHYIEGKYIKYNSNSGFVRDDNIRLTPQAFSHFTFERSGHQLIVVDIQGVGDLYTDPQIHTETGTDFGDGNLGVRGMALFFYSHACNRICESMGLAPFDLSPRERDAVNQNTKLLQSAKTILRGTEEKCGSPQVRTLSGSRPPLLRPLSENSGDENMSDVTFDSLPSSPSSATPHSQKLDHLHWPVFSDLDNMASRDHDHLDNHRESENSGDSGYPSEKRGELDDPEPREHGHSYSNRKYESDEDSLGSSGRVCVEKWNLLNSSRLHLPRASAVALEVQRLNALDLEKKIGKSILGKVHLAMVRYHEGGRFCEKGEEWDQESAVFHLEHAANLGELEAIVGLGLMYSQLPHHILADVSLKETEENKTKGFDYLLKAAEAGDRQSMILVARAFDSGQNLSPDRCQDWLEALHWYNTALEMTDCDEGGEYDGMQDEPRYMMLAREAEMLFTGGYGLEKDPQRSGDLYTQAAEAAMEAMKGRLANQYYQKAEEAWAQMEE
Protocol: as §1

EPHA5 = molecular target: T3, EPHA5 (Homo sapiens, UniProt P54756)
T3 construct: purchased ProQinase (Freiburg, Germany)
T3 sequence (P54756 25-1037): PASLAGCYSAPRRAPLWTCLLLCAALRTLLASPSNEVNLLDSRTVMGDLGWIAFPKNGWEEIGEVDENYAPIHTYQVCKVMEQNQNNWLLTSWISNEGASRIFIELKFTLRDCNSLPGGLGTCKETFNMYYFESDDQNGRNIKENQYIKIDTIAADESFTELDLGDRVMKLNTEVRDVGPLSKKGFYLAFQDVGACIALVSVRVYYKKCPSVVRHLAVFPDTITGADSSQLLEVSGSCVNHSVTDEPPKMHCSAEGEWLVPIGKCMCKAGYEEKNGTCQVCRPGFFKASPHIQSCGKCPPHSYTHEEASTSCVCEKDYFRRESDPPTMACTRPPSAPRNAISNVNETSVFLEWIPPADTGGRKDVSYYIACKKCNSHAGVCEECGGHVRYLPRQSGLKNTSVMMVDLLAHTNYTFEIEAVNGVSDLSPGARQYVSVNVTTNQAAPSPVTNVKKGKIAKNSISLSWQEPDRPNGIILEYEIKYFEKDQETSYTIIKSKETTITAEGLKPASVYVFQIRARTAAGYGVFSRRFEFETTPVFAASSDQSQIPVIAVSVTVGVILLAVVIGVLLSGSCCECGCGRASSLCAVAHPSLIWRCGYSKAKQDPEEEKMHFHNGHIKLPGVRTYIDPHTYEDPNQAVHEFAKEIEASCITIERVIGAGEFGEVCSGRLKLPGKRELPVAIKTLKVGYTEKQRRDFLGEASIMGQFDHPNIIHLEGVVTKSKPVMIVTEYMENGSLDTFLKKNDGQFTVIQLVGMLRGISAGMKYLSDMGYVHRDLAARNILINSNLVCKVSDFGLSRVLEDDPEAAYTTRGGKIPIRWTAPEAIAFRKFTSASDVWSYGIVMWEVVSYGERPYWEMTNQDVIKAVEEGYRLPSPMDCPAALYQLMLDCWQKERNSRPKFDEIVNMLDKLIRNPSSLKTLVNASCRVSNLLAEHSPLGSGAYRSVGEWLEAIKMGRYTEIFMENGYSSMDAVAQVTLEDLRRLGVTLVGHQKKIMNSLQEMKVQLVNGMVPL
Protocol: as §1

NIK = molecular target: T4, NIK (Homo sapiens, UniProt Q99558)
T4 construct: purchased ProQinase (Freiburg, Germany)
T4 sequence (Q99558 whole entry): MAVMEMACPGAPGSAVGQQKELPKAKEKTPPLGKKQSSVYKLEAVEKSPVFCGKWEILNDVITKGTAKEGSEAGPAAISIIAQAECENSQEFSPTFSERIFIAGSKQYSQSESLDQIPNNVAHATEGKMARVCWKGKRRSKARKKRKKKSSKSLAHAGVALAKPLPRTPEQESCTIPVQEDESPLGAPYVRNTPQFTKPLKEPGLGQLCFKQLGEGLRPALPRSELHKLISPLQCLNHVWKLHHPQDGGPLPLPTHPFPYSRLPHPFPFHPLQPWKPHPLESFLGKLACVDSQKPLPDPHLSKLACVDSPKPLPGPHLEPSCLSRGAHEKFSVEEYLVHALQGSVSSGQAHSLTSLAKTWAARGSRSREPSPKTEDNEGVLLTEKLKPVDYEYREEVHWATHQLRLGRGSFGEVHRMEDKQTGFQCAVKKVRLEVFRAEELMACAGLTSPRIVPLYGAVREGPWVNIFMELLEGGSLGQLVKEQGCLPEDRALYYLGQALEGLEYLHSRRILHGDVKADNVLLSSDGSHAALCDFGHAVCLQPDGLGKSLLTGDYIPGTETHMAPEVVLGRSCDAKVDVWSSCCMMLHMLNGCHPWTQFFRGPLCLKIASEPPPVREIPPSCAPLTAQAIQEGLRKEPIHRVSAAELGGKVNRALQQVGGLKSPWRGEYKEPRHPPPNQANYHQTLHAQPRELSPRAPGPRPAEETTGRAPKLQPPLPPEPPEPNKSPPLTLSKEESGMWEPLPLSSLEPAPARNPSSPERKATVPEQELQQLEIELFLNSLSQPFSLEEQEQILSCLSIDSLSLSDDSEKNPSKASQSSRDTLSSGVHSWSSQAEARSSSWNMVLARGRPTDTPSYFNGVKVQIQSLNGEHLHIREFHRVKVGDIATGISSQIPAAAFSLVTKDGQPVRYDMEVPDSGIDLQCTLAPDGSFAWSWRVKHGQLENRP
Protocol: as §1

PRK1 = molecular target: T5, PRK1 (Homo sapiens, UniProt Q16512)
T5 construct: purchased ProQinase (Freiburg, Germany)
T5 sequence (Q16512 whole entry): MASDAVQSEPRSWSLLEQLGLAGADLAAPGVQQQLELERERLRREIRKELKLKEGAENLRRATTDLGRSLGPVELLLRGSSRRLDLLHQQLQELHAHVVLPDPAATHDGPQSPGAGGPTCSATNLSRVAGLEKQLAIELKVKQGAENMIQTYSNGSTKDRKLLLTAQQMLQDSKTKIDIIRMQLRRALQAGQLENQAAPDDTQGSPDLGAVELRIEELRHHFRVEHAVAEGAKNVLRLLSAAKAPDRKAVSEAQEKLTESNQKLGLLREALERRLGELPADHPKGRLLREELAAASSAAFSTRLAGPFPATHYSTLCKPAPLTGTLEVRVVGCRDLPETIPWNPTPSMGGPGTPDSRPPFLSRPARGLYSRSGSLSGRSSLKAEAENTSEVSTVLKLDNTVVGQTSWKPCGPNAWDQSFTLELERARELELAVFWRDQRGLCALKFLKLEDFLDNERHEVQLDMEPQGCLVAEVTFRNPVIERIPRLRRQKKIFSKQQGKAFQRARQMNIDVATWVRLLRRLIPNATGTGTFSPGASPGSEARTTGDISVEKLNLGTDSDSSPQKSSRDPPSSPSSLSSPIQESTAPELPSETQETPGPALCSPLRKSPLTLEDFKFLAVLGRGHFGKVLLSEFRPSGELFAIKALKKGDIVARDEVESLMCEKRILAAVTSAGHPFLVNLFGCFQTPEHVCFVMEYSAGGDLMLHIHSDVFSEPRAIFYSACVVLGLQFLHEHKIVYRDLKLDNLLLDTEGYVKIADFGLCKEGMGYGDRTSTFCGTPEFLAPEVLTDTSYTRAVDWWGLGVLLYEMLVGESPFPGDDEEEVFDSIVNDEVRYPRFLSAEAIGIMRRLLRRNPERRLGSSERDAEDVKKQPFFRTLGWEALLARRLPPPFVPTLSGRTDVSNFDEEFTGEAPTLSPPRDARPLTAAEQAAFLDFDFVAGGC
Protocol: as §1

STK17A = molecular target: T6, STK17A (Homo sapiens, UniProt Q9UEE5)
T6 construct: purchased ProQinase (Freiburg, Germany)
T6 sequence (Q9UEE5 1-414): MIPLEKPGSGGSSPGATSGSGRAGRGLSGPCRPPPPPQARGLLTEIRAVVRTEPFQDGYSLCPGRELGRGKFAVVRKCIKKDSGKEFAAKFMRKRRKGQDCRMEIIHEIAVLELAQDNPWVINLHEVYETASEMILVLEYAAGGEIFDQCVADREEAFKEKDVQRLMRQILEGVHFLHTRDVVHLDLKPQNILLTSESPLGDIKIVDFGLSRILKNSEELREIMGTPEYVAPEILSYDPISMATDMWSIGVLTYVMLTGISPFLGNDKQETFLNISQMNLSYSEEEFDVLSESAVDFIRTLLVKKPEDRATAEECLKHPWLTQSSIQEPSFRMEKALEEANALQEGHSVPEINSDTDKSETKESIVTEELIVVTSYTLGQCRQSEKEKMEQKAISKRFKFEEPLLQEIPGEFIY
Protocol: as §1

TBK1 = molecular target: T7, TBK1 (Homo sapiens, UniProt Q9UHD2)
T7 construct: purchased ProQinase (Freiburg, Germany)
T7 sequence (Q9UHD2 1-729): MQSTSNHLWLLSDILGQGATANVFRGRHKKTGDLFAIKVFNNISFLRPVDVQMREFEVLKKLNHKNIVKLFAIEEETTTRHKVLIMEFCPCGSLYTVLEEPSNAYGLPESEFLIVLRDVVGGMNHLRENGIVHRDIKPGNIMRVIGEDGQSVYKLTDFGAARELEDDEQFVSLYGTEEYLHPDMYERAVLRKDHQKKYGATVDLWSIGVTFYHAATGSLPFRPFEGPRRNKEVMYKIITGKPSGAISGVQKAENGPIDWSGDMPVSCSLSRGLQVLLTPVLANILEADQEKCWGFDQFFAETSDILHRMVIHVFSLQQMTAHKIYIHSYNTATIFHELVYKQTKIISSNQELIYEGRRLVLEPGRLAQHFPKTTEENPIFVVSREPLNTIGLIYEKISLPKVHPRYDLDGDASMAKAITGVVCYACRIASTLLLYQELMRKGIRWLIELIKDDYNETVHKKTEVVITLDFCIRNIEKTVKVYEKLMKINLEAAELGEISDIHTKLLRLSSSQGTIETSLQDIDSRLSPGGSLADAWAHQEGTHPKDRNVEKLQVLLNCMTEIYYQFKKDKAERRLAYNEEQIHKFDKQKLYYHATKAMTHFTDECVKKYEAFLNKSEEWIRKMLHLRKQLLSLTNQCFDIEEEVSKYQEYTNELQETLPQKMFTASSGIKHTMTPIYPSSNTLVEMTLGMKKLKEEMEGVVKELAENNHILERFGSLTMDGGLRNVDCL
Protocol: as §1

TEC = molecular target: T8, TEC (Homo sapiens, UniProt P42680)
T8 construct: purchased ProQinase (Freiburg, Germany)
T8 sequence (P42680 1-631): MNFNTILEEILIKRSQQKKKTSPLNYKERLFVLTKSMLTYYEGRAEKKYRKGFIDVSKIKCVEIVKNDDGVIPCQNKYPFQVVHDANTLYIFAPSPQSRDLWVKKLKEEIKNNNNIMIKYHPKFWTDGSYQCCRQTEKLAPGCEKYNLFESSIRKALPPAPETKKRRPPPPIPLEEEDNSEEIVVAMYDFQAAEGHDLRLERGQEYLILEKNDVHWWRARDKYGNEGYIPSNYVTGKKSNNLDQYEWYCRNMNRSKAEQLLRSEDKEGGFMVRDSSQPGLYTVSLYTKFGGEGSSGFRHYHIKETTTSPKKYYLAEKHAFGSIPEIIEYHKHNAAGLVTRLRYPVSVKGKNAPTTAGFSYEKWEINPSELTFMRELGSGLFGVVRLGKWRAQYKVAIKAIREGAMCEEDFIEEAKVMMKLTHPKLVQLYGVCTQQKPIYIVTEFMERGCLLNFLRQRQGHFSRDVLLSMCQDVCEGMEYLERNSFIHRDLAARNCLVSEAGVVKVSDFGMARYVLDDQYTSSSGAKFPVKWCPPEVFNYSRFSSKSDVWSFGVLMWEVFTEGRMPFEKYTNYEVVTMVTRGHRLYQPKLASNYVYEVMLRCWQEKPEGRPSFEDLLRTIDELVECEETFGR
Protocol: as §1

T1 sequence (P06493 whole entry): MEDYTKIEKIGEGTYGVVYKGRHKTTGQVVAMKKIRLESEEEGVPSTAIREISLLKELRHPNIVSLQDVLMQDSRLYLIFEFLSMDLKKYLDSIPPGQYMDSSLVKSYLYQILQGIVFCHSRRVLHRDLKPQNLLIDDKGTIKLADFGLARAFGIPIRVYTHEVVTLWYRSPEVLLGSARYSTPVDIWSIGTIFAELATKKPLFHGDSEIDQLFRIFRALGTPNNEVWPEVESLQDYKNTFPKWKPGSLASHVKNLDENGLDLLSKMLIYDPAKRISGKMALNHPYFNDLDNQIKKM
T1 sequence (P20248 whole entry partner): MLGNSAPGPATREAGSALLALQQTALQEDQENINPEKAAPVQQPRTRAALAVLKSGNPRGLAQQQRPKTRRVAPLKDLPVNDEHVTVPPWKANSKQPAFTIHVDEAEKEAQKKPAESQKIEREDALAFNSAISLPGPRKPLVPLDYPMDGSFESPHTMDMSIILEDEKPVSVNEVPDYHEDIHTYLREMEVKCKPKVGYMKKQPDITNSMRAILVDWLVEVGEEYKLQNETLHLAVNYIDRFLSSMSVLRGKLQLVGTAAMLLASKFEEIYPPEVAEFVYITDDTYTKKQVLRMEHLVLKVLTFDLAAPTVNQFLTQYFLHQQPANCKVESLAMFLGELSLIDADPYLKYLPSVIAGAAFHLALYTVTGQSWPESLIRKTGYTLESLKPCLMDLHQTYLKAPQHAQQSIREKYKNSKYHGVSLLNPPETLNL

| SMILES | Residual activity (CDK1/CycA2; 1.0E-05 M) | Residual activity (CDK1/CycA2; 1.0E-06 M) | Residual activity (EEF2K; 1.0E-05 M) | Residual activity (EEF2K; 1.0E-06 M) | Residual activity (EPHA5; 1.0E-05 M) | Residual activity (EPHA5; 1.0E-06 M) | Residual activity (NIK; 1.0E-05 M) | Residual activity (NIK; 1.0E-06 M) | Residual activity (PRK1; 1.0E-05 M) | Residual activity (PRK1; 1.0E-06 M) | Residual activity (STK17A; 1.0E-05 M) | Residual activity (STK17A; 1.0E-06 M) | Residual activity (TBK1; 1.0E-05 M) | Residual activity (TBK1; 1.0E-06 M) | Residual activity (TEC; 1.0E-05 M) | Residual activity (TEC; 1.0E-06 M) |
| --- | --- | --- | --- | --- | --- | --- | --- | --- | --- | --- | --- | --- | --- | --- | --- | --- |
| O=C(Cc1ccccc1)Nc1ccc(F)c(Nc2ccc3c(c2)CCCCC3=O)c1 [Compound 100] | 83 % of control | 85 % of control | 89 % of control | 102 % of control | 67 % of control | 96 % of control | 103 % of control | 93 % of control | 101 % of control | 112 % of control | 76 % of control | 111 % of control | 101 % of control | 103 % of control | 69 % of control | 88 % of control |
| O=C(Nc1ccc(F)c(Nc2ccc3c(c2)CCCCC3=O)c1)c1cccc(F)c1 [Compound 109] | 88 % of control | 86 % of control | 94 % of control | 95 % of control | 60 % of control | 93 % of control | 103 % of control | 103 % of control | 101 % of control | 94 % of control | 88 % of control | 105 % of control | 93 % of control | 93 % of control | 80 % of control | 94 % of control |
